Target: T1, human glucocorticoid receptor (Homo sapiens, UniProt P04150)
T1 construct: host or cells: IM9 human lymphoblast cells, cytosol fraction
T1 sequence (P04150 1-777): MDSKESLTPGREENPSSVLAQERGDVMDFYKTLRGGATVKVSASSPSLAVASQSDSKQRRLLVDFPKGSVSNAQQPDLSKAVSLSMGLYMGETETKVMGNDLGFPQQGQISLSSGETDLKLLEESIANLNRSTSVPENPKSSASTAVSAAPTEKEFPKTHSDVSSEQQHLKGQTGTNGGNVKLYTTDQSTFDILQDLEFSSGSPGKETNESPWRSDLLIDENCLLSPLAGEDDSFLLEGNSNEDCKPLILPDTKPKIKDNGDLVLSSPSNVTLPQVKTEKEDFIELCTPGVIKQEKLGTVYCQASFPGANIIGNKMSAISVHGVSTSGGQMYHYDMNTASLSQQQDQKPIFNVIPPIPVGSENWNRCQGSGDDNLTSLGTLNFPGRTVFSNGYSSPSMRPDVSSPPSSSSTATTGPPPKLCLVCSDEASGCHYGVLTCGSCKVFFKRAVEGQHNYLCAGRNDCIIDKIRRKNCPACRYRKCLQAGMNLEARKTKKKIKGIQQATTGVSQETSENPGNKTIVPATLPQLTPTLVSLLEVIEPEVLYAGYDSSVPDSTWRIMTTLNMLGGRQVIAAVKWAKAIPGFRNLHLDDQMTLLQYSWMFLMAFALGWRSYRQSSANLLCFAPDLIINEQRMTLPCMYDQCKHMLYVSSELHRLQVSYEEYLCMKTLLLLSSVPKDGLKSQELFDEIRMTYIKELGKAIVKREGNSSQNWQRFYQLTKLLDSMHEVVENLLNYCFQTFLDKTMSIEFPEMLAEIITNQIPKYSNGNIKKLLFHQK
Test: Human glucocorticoid receptor (hGR) ligand-binding assay, 3H-dexamethasone, IM9 cytosol
Conditions: read-out: % inhibition hGR at 1 μM
Description: Preferably, the glucocortitcoid receptor extracted from cytosol of IM9 cells is used for competitive radioligand binding assays to calculate percentage inhibition of the binding of radiolabeled ligand 3H-dexamethasone at the human glucocorticoid receptor.
The human lymphoblast cell line IM9 (ATCC, Bethesda, Md.) was cultivated in RPMI 1640 media containing 10% fetal bovine serum, penicillin (100 U/ml), streptomycin (100 μg/ml), and 2 mM L-glutamine at […] and 7% CO2 in a humidified incubator. Cells were centrifuged for 10 minutes at 1500 g and were washed in PBS and repelleted. Cell were then resuspended in homogenization buffer consisting of: 10 mM TES, 10 mM sodium molybdate, 1 mM EDTA, pH 7.4, 20 mM 2-mercaptoethanol, and 10% glycerol. Disruption of the cells was performed by nitrogen cavitation using 2×15 minutes at 600 to 750 psi nitrogen in a N2 cavitator at 0° C. The cell preparation was then centrifuged at 27,000 g for 15 minutes, and the resultant supernatant (=cytosol of IM9 cells) was centrifuged at 103,000 g for 60 minutes at 4° C. The amount of protein in the supernatant fraction was determined using a BCA assay kit and aliquots were snap frozen in a dry ice-acetone bath and stored at −70° C. […] 100 μl of the supernatant) was finally assayed for radioactivity by liquid scintillationspectrometry, and percentage inhibition of 3H-dexamethasone binding was calculated.

An inhibition at 1 µM of 28% was found for `Cc1cnc(C(=O)N[C@H]2[C@H](c3ccccc3)N(c3ccc4c(cnn4-c4ccc(=O)n(C)c4)c3)C(=O)C2(C)C)s1` [Example 26, N-[(2S,3R)-4,4-Dimethyl-1-[1-(1-methyl-6-oxo-1H-pyridin-3-yl)-1H-indazol-5-yl]-5-oxo-2-phenyl-pyrrolidin-3-yl]-5-methyl-thiazole-2-carboxylic acid amide] in this work.

Source: US20200223840A1, “SUBSTITUTED PYRROLIDINE AMIDES III” (Gruenenthal GMBH, priority 2019, published 2020)
